Measured values published in USRE39591E1, “6-O-substituted ketolides having antibacterial activity” (Abbott Laboratories, priority 1996, dated 2007).
In brackets after ≈: the same amount, converted by molar mass.

Test system: up to 32 different microorganisms
Assay: in vitro antibacterial activity (MIC), agar dilution on Brain Heart Infusion (BHI) agar with Steers replicator
Format: cell-based
Settings: unit assumed
Method: Representative compounds of the present invention were assayed in vitro for antibacterial activity as follows: Twelve petri dishes containing successive aqueous dilutions of the test compound mixed with 10 mL of sterilized Brain Heart Infusion (BHI) agar (Difco 0148-01-5) were prepared. Each plate was inoculated with 1:100 (or 1:10 for slow-growing strains, such as Micrococcus and Streptococcus) dilutions of up to 32 different microorganisms, using a Steers replicator block. The inoculated plates were incubated at 35°-37° C. for 20 to 24 hours. In addition, a control plate, using BHI agar containing no test compound, was prepared and incubated at the beginning and end of each test.
An additional plate containing a compound having known susceptibility patterns for the organisms being tested and belonging to the same antibiotic class as the test compound was also prepared and incubated as a further control, as well as to provide test-to-test comparability. Erythromycin A was used for this purpose.
After incubation, each plate was visually inspected. The minimum inhibitory concentration (MIC) was defined as the lowest concentration of drug yielding no growth, a slight haze, or sparsely isolated colonies on the inoculum spot as compared to the growth control.

With CCC1OC(=O)C(C)C(=O)C(C)C(OC2OC(C)CC(N(C)C)C2O)C(C)(OCC=Cc2ccc3nc(C)ccc3c2)CC(C)C(=O)C(C)C2NC(=O)OC12C (stereo not shown) [Example 197, R is —CH2CH═CH-(2-methyl-6-quinolyl)] the MIC (Candida albicans CCH 442 (code TT)) was greater than 100 µg/mL, the MIC (Enterococcus faecism ATCC 8043 (code II)) was 0.05 µg/mL (≈ 0.0641 µM) and the MIC (Escherichia coli DC-2 (code SS)) was 100 µg/mL (≈ 128 µM). The MIC (Escherichia coli JUHL (code QQ)) was 100 µg/mL (≈ 128 µM), the MIC (Escherichia coli SS (code RR)) was 0.2 µg/mL (≈ 0.256 µM) and the MIC (Micrococcus luteus ATCC 4698 (code PP)) was 0.2 µg/mL (≈ 0.256 µM). For the same compound, the MIC (Micrococcus luteus ATCC 9341 (code OO)) was 0.02 µg/mL (≈ 0.0256 µM), the MIC (Mycobacterium smegmatis ATCC 114 (code UU)) was 1.56 µg/mL (≈ 2 µM) and the MIC (Nocardia Asteroides ATCC9970 (code VV)) was 0.1 µg/mL (≈ 0.128 µM). For the same compound, the MIC (Staphylococcus aureus 1775 (code GG)) was greater than 100 µg/mL, the MIC (Staphylococcus aureus A5177 (code BB)) was 0.1 µg/mL (≈ 0.128 µM) and the MIC (Staphylococcus aureus A-5278 (code CC)) was greater than 100 µg/mL. The MIC (Staphylococcus aureus ATCC 6538P (code AA)) was 0.1 µg/mL (≈ 0.128 µM), the MIC (Staphylococcus aureus CMX 553 (code FF)) was 0.2 µg/mL (≈ 0.256 µM) and the MIC (Staphylococcus aureus CMX 642A (code DD)) was 0.1 µg/mL (≈ 0.128 µM). For the same compound, the MIC (Staphylococcus aureus NCTC10649M (code EE)) was 0.2 µg/mL (≈ 0.256 µM), the MIC (Staphylococcus epidermidis 3519 (code HH)) was 0.1 µg/mL (≈ 0.128 µM) and the MIC (Streptococcus agalactiae CMX 508 (code KK)) was no more than 0.005 µg/mL. The MIC (Streptococcus bovis A-5169 (code JJ)) was no more than 0.005 µg/mL, the MIC (Streptococcus pyogenes 930 (code MM)) was 100 µg/mL (≈ 128 µM) and the MIC (Streptococcus pyogenes EES61 (code LL)) was no more than 0.005 µg/mL. The MIC (Streptococcus pyogenes PIU 2548 (code NN)) was 0.1 µg/mL (≈ 0.128 µM).

With CCC1OC(=O)C(C)C(=O)C(C)C(OC2OC(C)CC(N(C)C)C2O)C(C)(OCC=Cc2ccc3ncc(-c4ccccc4)cc3c2)CC(C)C(=O)C(C)C2NC(=O)OC12C (stereo not shown) [Example 273, Compound of Formula (IX): L is CO, T is NH2, R is —CH2CH═CH-(3-phenyl-6-quinolyl)] the MIC (organism code AA) was 0.2 µg/mL, the MIC (organism code BB) was 0.2 µg/mL and the MIC (organism code CC) was greater than 100 µg/mL. It also gave an MIC (organism code DD) of 0.2 µg/mL, an MIC (organism code EE) of 0.2 µg/mL and an MIC (organism code FF) of 0.2 µg/mL. It also gave an MIC (organism code GG) greater than 100 µg/mL, an MIC (organism code HH) of 0.2 µg/mL and an MIC (organism code II) of 0.1 µg/mL. The MIC (organism code JJ) was 0.02 µg/mL, the MIC (organism code KK) was 0.02 µg/mL and the MIC (organism code LL) was 0.05 µg/mL. The MIC (organism code MM) was 12.5 µg/mL, the MIC (organism code NN) was 0.39 µg/mL and the MIC (organism code OO) was 0.05 µg/mL. It also gave an MIC (organism code PP) of 0.39 µg/mL, an MIC (organism code QQ) greater than 100 µg/mL and an MIC (organism code RR) of 0.78 µg/mL. It also gave an MIC (organism code SS) greater than 100 µg/mL, an MIC (organism code TT) greater than 100 µg/mL and an MIC (organism code UU) of 0.78 µg/mL. The MIC (organism code VV) was 0.39 µg/mL, the MIC (organism code WW) was 8 µg/mL and the MIC (organism code XX) was 0.03 µg/mL. For the same compound, the MIC (organism code YY) was 0.03 µg/mL, the MIC (organism code ZZ) was 16 µg/mL and the MIC (organism code ZZA) was 0.5 µg/mL.

CC[C@H]1OC(=O)[C@H](C)C(=O)[C@H](C)[C@@H](O[C@@H]2O[C@H](C)C[C@H](N(C)C)[C@H]2O)[C@@](C)(OCC#Cc2ccc3cc(Cl)ccc3c2)C[C@@H](C)C(=O)[C@H](C)[C@H]2NC(=O)O[C@@]21C [Example 253, Compound of Formula (IX): L is CO, T is NH, R is —CH2—C≡C-(6-chloro-2-naphthyl)] was tested, and the MIC (organism code AA) was 0.05 µg/mL, the MIC (organism code BB) was 0.05 µg/mL and the MIC (organism code CC) was greater than 100 µg/mL. The MIC (organism code DD) was 0.05 µg/mL, the MIC (organism code EE) was 0.1 µg/mL and the MIC (organism code FF) was 0.05 µg/mL. It also gave an MIC (organism code GG) greater than 100 µg/mL, an MIC (organism code HH) of 0.05 µg/mL and an MIC (organism code II) of 0.05 µg/mL. The MIC (organism code JJ) was 0.02 µg/mL, the MIC (organism code KK) was 0.02 µg/mL and the MIC (organism code LL) was 0.01 µg/mL. The MIC (organism code MM) was 0.78 µg/mL, the MIC (organism code NN) was 0.05 µg/mL and the MIC (organism code OO) was 0.01 µg/mL. It also gave an MIC (organism code PP) of 0.1 µg/mL, an MIC (organism code QQ) of 50 µg/mL and an MIC (organism code RR) of 0.3 µg/mL. For the same compound, the MIC (organism code SS) was 50 µg/mL, the MIC (organism code TT) was greater than 100 µg/mL and the MIC (organism code UU) was 0.2 µg/mL. It also gave an MIC (organism code VV) of 0.02 µg/mL, an MIC (organism code WW) of 2 µg/mL and an MIC (organism code XX) of 0.015 µg/mL. It also gave an MIC (organism code YY) of 0.03 µg/mL, an MIC (organism code ZZ) of 1 µg/mL and an MIC (organism code ZZA) of 0.25 µg/mL.

With CC[C@H]1OC(=O)[C@H](C)C(=O)[C@H](C)[C@@H](O[C@@H]2O[C@H](C)C[C@H](N(C)C)[C@H]2O)[C@@](C)(OCC#Cc2ccc3ccccc3c2)C[C@@H](C)C(=O)[C@H](C)[C@H]2NC(=O)O[C@@]21C [Example 251, Compound of Formula (IX): L is CO, T is NH, R is —CH2—C≡C-(2-naphthyl)] the MIC (organism code AA) was 0.1 µg/mL, the MIC (organism code BB) was 0.1 µg/mL and the MIC (organism code CC) was greater than 100 µg/mL. The MIC (organism code DD) was 0.1 µg/mL, the MIC (organism code EE) was 0.1 µg/mL and the MIC (organism code FF) was 0.1 µg/mL. The MIC (organism code GG) was greater than 100 µg/mL, the MIC (organism code HH) was 0.1 µg/mL and the MIC (organism code II) was 0.1 µg/mL. The MIC (organism code JJ) was 0.02 µg/mL, the MIC (organism code KK) was 0.05 µg/mL and the MIC (organism code LL) was 0.05 µg/mL. The MIC (organism code MM) was 6.2 µg/mL, the MIC (organism code NN) was 0.2 µg/mL and the MIC (organism code OO) was 0.02 µg/mL. For the same compound, the MIC (organism code PP) was 0.2 µg/mL, the MIC (organism code QQ) was greater than 100 µg/mL and the MIC (organism code RR) was 1.56 µg/mL. For the same compound, the MIC (organism code SS) was greater than 100 µg/mL, the MIC (organism code TT) was greater than 100 µg/mL and the MIC (organism code UU) was 0.2 µg/mL. It also gave an MIC (organism code VV) of 0.05 µg/mL, an MIC (organism code WW) of 16 µg/mL and an MIC (organism code XX) of 0.125 µg/mL. For the same compound, the MIC (organism code YY) was 0.25 µg/mL, the MIC (organism code ZZ) was greater than 128 µg/mL and the MIC (organism code ZZA) was 1 µg/mL.
